This experiment has as its target T1, C1r-CCP2-SP (Homo sapiens, UniProt P00736).
T1 sequence (P00736 374-463 limits assumed): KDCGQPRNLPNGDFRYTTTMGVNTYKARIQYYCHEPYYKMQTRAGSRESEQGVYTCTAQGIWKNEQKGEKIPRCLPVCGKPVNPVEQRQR
T1 sequence (P00736 464-705 limits assumed): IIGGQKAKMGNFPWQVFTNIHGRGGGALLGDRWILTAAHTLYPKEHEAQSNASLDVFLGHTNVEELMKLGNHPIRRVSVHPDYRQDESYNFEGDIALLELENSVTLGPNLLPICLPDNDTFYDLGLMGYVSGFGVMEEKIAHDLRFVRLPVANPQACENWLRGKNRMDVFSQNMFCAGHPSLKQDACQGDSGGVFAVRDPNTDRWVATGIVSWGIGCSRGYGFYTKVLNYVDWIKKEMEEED
The experiment can be described thus: SPR domain mapping, C1r-CCP2-SP surface. In kind it is binding. The settings on record: duplicate. The source says:
Figure 5 Selectivity and mechanistic analysis of CMP-1611 and CMP-1696. (A) Chemical structure of CMP-1611. (B) Chemical structure of CMP-1696. (C) Dose-dependent inhibition by CMP-1611 and CMP-1696 in a classical pathway-specific ELISA. Data were fit with GraphPad Prism using non-linear regression with a log(inhibitor) vs. response model. […] The CMP-778 inhibitory response could not be fit to a dose-response inhibition model. (D) Complement pathway selectivity of CMP-1611 and CMP-1696. Compounds were assessed for their ability to inhibit activation of complement via the lectin and alternative pathways using single doses of 500 μM compound in triplicate. To ensure only lectin pathway activation, 2% (v/v) C1q-depleted serum (CompTech) was used and mannan was used as the activator. To match serum sources and amounts for this assay, the classical pathway assays were repeated here using serum from CompTech at 2% (v/v) final concentration. Alternative pathway activation assays were performed using 20% (v/v) serum (CompTech), alternative pathway buffers, and C3b detection (see Methods and Materials for details). […] (E) C1r, C1r-CUB1, and C1r-CCP2-SP, were immobilized on an SPR sensor chip and binding responses for 500 μM CMP-1611 and CMP-1696 or 10 μM Futhan were each injected in duplicate over all surfaces. Binding responses were corrected for the molecular weight of each analyte and the immobilization level and molecular weight of each surface ligand. Measures of statistical significance in (D) were obtained by comparison of vehicle control using an unpaired t-test (* p < 0.05). To assess selectivity of CMP-1611 and CMP-1696, we performed pathway-specific ELISA-based inhibition assays. […] However, CMP-1696, but not CMP-1611, blocked lectin pathway activation at a similar level as it did the classical pathway (Figure 5D). To further investigate the divergent selectivity profiles of CMP-1611 and CMP-1696, we first sought to clarify the binding site on C1r for each compound. […] We then injected each compound simultaneously over the three surfaces at 500 μM and measured binding responses. […]

In the case of `CN(C)c1cc(N2CCCC(N)C2)ncn1` (stereo not drawn) [CMP-1611], the “relative SPR binding response, C1r-CCP2-SP” value (“relative SPR binding response” for short) (500 µM compound) is reported as “bound weakly”.
In the case of `COCc1nc(-c2ccc(OC3CNC3)cc2)no1` [CMP-1696], for the setting “500 µM compound”, the “relative SPR binding response” value is “high binding”.
On to `N=C(N)c1ccc2cc(OC(=O)c3ccc(N=C(N)N)cc3)ccc2c1` [Futhan, reference compound], for which the “relative SPR binding response” value (10 µM Futhan) is “bound C1r and C1r-CCP2-SP similarly”.

For the origin of these results see PMC7504721, “Targeting the Initiator Protease of the Classical Pathway of Complement Using Fragment-Based Drug Discovery” (Molecules, 2020).
